Consider nine compounds from patent US6767991B1, “Hepatitis C inhibitor peptides” (priority 1997, dated 2004).

pIC50: −log10 of the molar value. Where two headings read alike, the source gives them in different places. Where a SMILES comes first, the peptide text is derived from it. [ ]: non-standard residue; d: D form. The star is where a group is joined. Acca(2-Et,1R,2R) = CC[C@@H]1C[C@]1(N)C(=O)O; CH2(1-naphthyl) = c1ccc2c(C*)cccc2c1; Hyp = O=C(O)[C@@H]1C[C@@H](O)CN1; Chg = N[C@H](C(=O)O)C1CCCCC1; Nva = CCC[C@H](N)C(=O)O; X1 = c1ccc2cc(C*)ccc2c1; Ac3c = NC1(C(=O)O)CC1; Bn = c1ccc(C*)cc1 Where only a bound is given, the exact number is not on record here.

Assay [1] deals with T1, HCV NS3 protease type 1b/NS4A cofactor peptide (Hepatitis C virus genotype 1b, UniProt P26663).
T1 construct: recombinant HCV NS3 protease (amino acid 1027 to 1206) was cloned in the pET11d bacterial expression vector; made in house; host or cells: E. coli BL21(DE3)pLysS
Put plainly: Recombinant HCV NS3 protease/NS4A cofactor peptide radiometric assay. The format is biochemical, HCV genotype 1b.

For assay [2], the target named is T2, human leukocyte elastase (Homo sapiens, UniProt P08246).
T2 sequence (P08246 30-267): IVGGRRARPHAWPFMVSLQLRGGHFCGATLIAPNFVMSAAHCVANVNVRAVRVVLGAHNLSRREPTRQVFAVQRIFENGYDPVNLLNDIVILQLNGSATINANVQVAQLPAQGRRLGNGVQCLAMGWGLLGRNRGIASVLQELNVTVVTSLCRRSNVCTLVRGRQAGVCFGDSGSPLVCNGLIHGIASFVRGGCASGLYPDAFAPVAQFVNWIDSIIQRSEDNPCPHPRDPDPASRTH
Nature of the assay: Specificity assay: human leukocyte elastase. The class given is biochemical. On the procedure: (§1) The final conditions for each assay were as follows:
[100 μM Succ-AAPF-pNA [SEQ. ID NO.
(§2) The percentage of inhibition was calculated using the formula:
(§3) [1-((UVinn-UVblank)/(UVctl-UVblank))]×100

Assay [3] concerns the target porcine pancreatic elastase (Sus scrofa, UniProt P00772). Nature of the assay: biochemical.
Experimental: (§4) The specificity of the compounds was determined against a variety of serine proteases: human leukocyte elastase, porcine pancreatic elastase and bovine pancreatic α-chymotrypsin and one cysteine protease: human liver cathepsin B. In all cases a 96-well plate format protocol using a colorimetric p-nitroaniline (pNA) substrate specific for each enzyme was used. Each assay included a 1 h enzyme-inhibitor pre-incubation at 30° C. followed by addition of substrate and hydrolysis to ≈30% conversion as measured on a UV Thermomax® microplate reader. Substrate concentrations were kept as low as possible compared to KM to reduce substrate competition. Compound concentrations varied from 300 to 0.06 μM depending on their potency. The final conditions for each assay were as follows:
(§5) 50 mM Tris-HCl pH 8, 0.5 M Na2SO4, 50 mM NaCl, 0.1 mM EDTA, 3% DMSO, 0.01% Tween-20 with;
[100 μM Succ-AAPF-pNA [SEQ. […] 7] and 250 pM α-chymotrypsin], [133 μM Succ-AAA-pNA and 8 nM porcine elastase], [133 μM Succ-AAV-pNA and 8 nM leukocyte elastase]; or
A representative example is summarized below for porcine pancreatic elastase: In a polystyrene flat-bottom 96-well plate were added using a Biomek liquid handler (Beckman):
40 μL of assay buffer (50 mM Tris-HCl pH 8, 50 mM NaCl, 0.1 mM EDTA);
20 μL of enzyme solution (50 mM Tris-HCl pH 8, 50 mM NaCl, 0.1 mM EDTA, 0.02% Tween-20, 40 nM porcine pancreatic elastase); and
20 μL of inhibitor solution (50 mM Tris-HCl, pH 8, 50 mM NaCl, 0.1 mM EDTA, 0.02% Tween-20, 1.5 mM-0.3 μM inhibitor, 15% v/v DMSO).
After 60 min pre-incubation at 30° C., 20 μL of substrate solution (50 mM Tris/HCl, pH 8, 0.5 M Na2SO4, 50 mM NaCl, 0.1 mM EDTA, 665 μM Succ-AAA-pNA) were added to each well and the reaction was further incubated at 30° C. for 60 min after which time the absorbance was read on the UV Thermomax® plate reader. Rows of wells were allocated for controls (no inhibitor) and for blanks (no inhibitor and no enzyme). The sequential 2-fold dilutions of the inhibitor solution were performed on a separate plate by the liquid handler using 50 mM Tris-HCl pH 8, 50 mM NaCl, 0.1 mM EDTA, 0.02% Tween-20, 15% DMSO. All other specificity assays were performed in a similar fashion.
A non-linear curve fit with the Hill model was applied to the inhibition-concentration data, and the 50% effective concentration (IC50) was calculated by the use of SAS software (Statistical Software System; SAS Institute, Inc., Cary, N.C.).
Assay [4] concerns the target T3, human liver cathepsin B (Homo sapiens, UniProt P07858).
T3 construct: from tissue; host or cells: human liver
Nature of the assay: Specificity assay: human liver cathepsin B. The format is biochemical. On the procedure:
as §1
[100 mM NaHPO4 pH 6, 0.1 mM EDTA, 3% DMSO, 1 mM TCEP, 0.01% Tween-20, 30 μM Z-FR-pNA and 5 nM cathepsin B (tile stock enzyme was activated in buffer containing 20 mM TCEP before use)].
as §2, §3

For assay [5], the target named is bovine pancreatic α-chymotrypsin (Bos taurus, UniProt P00766). Nature of the assay: biochemical.
Experimental: as §4, §5
After 60 min pre-incubation at 30° C., 20 μL of substrate solution (50 mM Tris/HCl, pH 8, 0.5 M Na2SO4, 50 mM NaCl, 0.1 mM EDTA, 665 μM Succ-AAA-pNA) were added to each well and the reaction was further incubated at 30° C. for 60 min after which time the absorbance was read on the UV Thermomax® plate reader. Rows of wells were allocated for controls (no inhibitor) and for blanks (no inhibitor and no enzyme). […]
The percentage of inhibition was calculated using the formula: […]
Assay [6] addresses NS3 protease (Hepatitis C virus genotype 1b, UniProt P26663). Nature of the assay: Inhibition of NS3 protease by N-terminal cleavage product (assay not specified). The format is biochemical, HCV. To be noted: N-terminal cleavage product of an analog of a natural substrate.
The mark [7] stands for this setting: Table 5, first line of the cell, NS3 protease/NS4A cofactor peptide radiometric assay (Example 38), read-out: IC50.
Setting [8] is: Table 2, unmarked values: NS3 protease/NS4A cofactor peptide radiometric assay, read-out: IC50.
The mark [9] stands for this setting: IC50, Table 2, unmarked values: NS3 protease/NS4A cofactor peptide radiometric assay.
[10] abbreviates: Table 2, human leukocyte elastase, read-out: HLE.

Chain of porcine pancreatic elastase (P00772 27-266): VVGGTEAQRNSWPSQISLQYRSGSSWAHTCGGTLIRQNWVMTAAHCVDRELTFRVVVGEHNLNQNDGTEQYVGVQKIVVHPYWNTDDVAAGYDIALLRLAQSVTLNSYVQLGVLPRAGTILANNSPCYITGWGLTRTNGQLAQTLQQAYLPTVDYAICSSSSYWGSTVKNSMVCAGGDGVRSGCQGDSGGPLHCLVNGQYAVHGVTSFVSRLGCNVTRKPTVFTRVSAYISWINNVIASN
T1 sequence (P26663 1027-1206, other chains not shown): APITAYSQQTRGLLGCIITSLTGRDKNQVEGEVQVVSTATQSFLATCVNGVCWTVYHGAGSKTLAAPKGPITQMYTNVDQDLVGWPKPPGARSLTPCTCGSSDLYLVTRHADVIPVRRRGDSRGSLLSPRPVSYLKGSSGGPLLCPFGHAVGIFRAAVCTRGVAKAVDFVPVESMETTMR
Chain of NS3 protease (P26663 1027-1208): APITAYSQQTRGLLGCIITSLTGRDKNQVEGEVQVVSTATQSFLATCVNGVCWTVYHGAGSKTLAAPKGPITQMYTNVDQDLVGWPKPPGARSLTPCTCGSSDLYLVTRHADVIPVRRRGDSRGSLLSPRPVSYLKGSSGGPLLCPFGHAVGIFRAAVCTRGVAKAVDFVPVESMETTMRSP

Regarding `CCC[C@H](NC(=O)[C@@H]1CCCN1C(=O)[C@@H](NC(=O)[C@@H](NC(=O)[C@H](CC(=O)O)NC(=O)[C@H](CC(=O)O)NC(C)=O)[C@@H](C)CC)C(C)C)C(=O)O` [compound 123], the pIC50 is 3.66 in assay [1] (Table 1, unmarked values: NS3 protease/NS4A cofactor peptide radiometric assay, read-out: IC50); less than 3.52 in assay [2]; less than 3.52 in assay [3].
In the case of `CC[C@@H]1C[C@]1(NC(=O)[C@@H]1C[C@@H](OCc2cccc3ccccc23)CN1C(=O)[C@@H](NC(=O)[C@@H](NC(=O)[C@@H](CCC(=O)O)NC(=O)[C@H](CC(=O)O)NC(C)=O)C1CCCCC1)C1CCCCC1)C(=O)O` [compound 509] (Ac-D[dE][Chg][Chg][Hyp](CH2(1-naphthyl))[Acca(2-Et,1R,2R)]-OH), the pIC50 in assay [1] (setting [7]) was 7.82; in assay [2], less than 3.52.
In the case of `CC(=O)N[C@H](C(=O)N[C@H](C(=O)N1C[C@H](OCc2cccc3ccccc23)C[C@H]1C(=O)NC1(C(=O)O)CC1)C(C)C)C1CCCCC1` [compound 227] (Ac-[Chg]V[Hyp](CH2(1-naphthyl))[Ac3c]-OH), the pIC50 in assay [1] (setting [8]) was 5.52; in assay [2] it was less than 3.22.
For `CC[C@H](C)[C@H](NC(=O)[C@@H](CCC(=O)O)NC(=O)[C@H](CC(=O)O)NC(C)=O)C(=O)N[C@H](C(=O)N1C[C@H](OCc2ccccc2)C[C@H]1C(=O)NC1(C(=O)O)CC1)C(C)C` [compound 212] (Ac-D[dE]IV[Hyp](Bn)[Ac3c]-OH; C-terminus assumed), the pIC50 in assay [1] (setting [9]) was 6.68; in assay [2] (setting [10]), less than 3.52; in assay [3], less than 3.52.
For `CCC[C@H](NC(=O)[C@@H]1C[C@@H](OCc2ccccc2)CN1C(=O)[C@@H](NC(=O)[C@@H](NC(=O)[C@@H](CCC(=O)O)NC(=O)[C@H](CC(=O)O)NC(C)=O)[C@@H](C)CC)C(C)C)C(=O)O` [compound 203] (Ac-D[dE]IV[Hyp](Bn)[Nva]-OH; C-terminus assumed), the pIC50 was 6.22 in assay [1] (setting [9]); less than 3.52 in assay [2] (setting [10]); less than 3.52 in assay [4] (Table 2, marked **: human liver cathepsin B, read-out: Other (marked **)); less than 3.52 in assay [3].
For the compound `CC(=O)N[C@@H](CC(=O)O)C(=O)N[C@H](CCC(=O)O)C(=O)N[C@H](C(=O)N[C@H](C(=O)N1C[C@H](OCc2ccccc2)C[C@H]1C(=O)N[C@@H](CS)C(=O)O)C(C)C)C1CCCCC1` [compound 210] (Ac-D[dE][Chg]V[Hyp](Bn)C-OH), the pIC50 in assay [1] (setting [9]) is 7.48; in assay [2] (setting [10]) it was less than 3.52; in assay [3] it was less than 3.52; in assay [5], less than 3.52.
In the case of `CCC[C@H](NC(=O)[C@@H]1C[C@@H](OCc2ccc3ccccc3c2)CN1C(=O)[C@@H](NC(=O)[C@@H](NC(=O)[C@@H](CCC(=O)O)NC(=O)[C@H](CC(=O)O)NC(C)=O)C1CCCCC1)C(C)C)C(=O)O` [compound 214] (Ac-D[dE][Chg]V[Hyp](X1)[Nva]-OH), the pIC50 in assay [1] (setting [8]) is 7.55; in assay [2], less than 3.52; in assay [4] it was less than 3.52; in assay [3], less than 3.52; in assay [5] it was less than 3.52.
As for `CC[C@@H]1C[C@]1(NC(=O)[C@@H]1C[C@@H](OCc2cccc3ccccc23)CN1C(=O)[C@@H](NC(=O)[C@@H](NC(=O)[C@@H](CCC(=O)O)NC(=O)[C@H](CC(=O)O)NC(C)=O)C1CCCCC1)C(C)C)C(=O)O` [compound 518] (Ac-D[dE][Chg]V[Hyp](CH2(1-naphthyl))[Acca(2-Et,1R,2R)]-OH), the figures for the pIC50 in assay [1] (setting [7]) and in assay [2] were 7.96 and less than 3.52, respectively.
Take Ac-DDIVPC-OH [Ac-D-D-I-V-P-C-OH]: in assay [6], the “inhibition of NS3 protease” value is “inhibitory”.
